# Assay results: PMC11435058, “Synthesis of New Thiazole-Privileged Chalcones as Tubulin Polymerization Inhibitors with Potential Anticancer Activities” (Pharmaceuticals, 2024)
# How the values were obtained:
# OVCAR-3 = test: cells; details: Homo sapiens
# HL-60(TB) = test: NCI-60 anticancer screen (SRB; single dose and five doses); details: Homo sapiens
# K-562 = test: as above; details: Homo sapiens
# SR = test: as above; details: Homo sapiens
# EKVX = test: as above; details: Homo sapiens
# HT29 = test: as above; details: Homo sapiens
# KM12 = test: as above; details: Homo sapiens
# SW-620 = test: as above; details: Homo sapiens
# SF-268 = test: as above; details: Homo sapiens
# SNB-75 = test: as above; details: Homo sapiens, SNB-75, 48 h, read-out: Growth Percentage
# U251 = test: as above; details: Homo sapiens
# LOX IMVI = test: as above; details: Homo sapiens
# MDA-MB-435 = test: as above; details: Homo sapiens
# SK-MEL-2 = test: as above; details: Homo sapiens
# SK-MEL-5 = test: as above; details: Homo sapiens
# UACC-257 = test: as above; details: Homo sapiens
# UACC-62 = test: as above; details: Homo sapiens
# IGROV1 = test: as above; details: Homo sapiens
# OVCAR-4 = test: as above; details: Homo sapiens
# OVCAR-5 = test: as above; details: Homo sapiens
# 786-0 = test: as above; details: Homo sapiens
# CAKI-1 = test: as above; details: Homo sapiens
# SN12C = test: as above; details: Homo sapiens
# UO-31 = test: as above; details: Homo sapiens
# DU-145 = test: as above; details: Homo sapiens
# MCF7 = test: as above; details: Homo sapiens
# MDA-MB-231/ATCC = test: as above; details: Homo sapiens
# HS 578T = test: as above; details: Homo sapiens
# T-47D = test: as above; details: Homo sapiens, T47D
# [1] = 48 h, read-out: Growth Percentage
smiles,measurement,setting,value
"Cc1[nH]c(=S)sc1C(=O)/C=C/c1ccc(Br)cc1 [2g, (E)-3-(4-Bromophenyl)-1-(4-Methyl-2-Thioxo-2,3-Dihydrothiazol-5-yl)Prop-2-En-1-One]",GI50,OVCAR-3; OVCAR-3,1.88 µM
same,activity at 10 µM,"OVCAR-3; OVCAR-3, 48 h, read-out: Growth Percentage",-12.3%
same,CC50,"OVCAR-3; OVCAR-3, read-out: LC50",9.7 µM
same,IC (TGI),"OVCAR-3; OVCAR-3, read-out: TGI",4.27 µM
same,GI50,HL-60(TB); HL-60,1.94 µM
same,activity at 10 µM,"HL-60(TB); HL-60, 48 h, read-out: Growth Percentage",13.2%
same,CC50,"HL-60(TB); HL-60, read-out: LC50",> 100 µM
same,IC (TGI),"HL-60(TB); HL-60, read-out: TGI",9.92 µM
same,GI50,K-562; K562,2.73 µM
same,activity at 10 µM,"K-562; K562, 48 h, read-out: Growth Percentage",13.6%
same,CC50,"K-562; K562, read-out: LC50",> 100 µM
same,IC (TGI),"K-562; K562, read-out: TGI",> 100 µM
same,GI50,SR,2.83 µM
same,activity at 10 µM,SR; [1],8.46%
same,CC50,SR; read-out: LC50,> 100 µM
same,IC (TGI),SR; read-out: TGI,23.2 µM
same,GI50,EKVX,10.6 µM
same,activity at 10 µM,EKVX; [1],62.9%
same,CC50,EKVX; read-out: LC50,51 µM
same,IC (TGI),EKVX; read-out: TGI,23.3 µM
same,GI50,HT29; HT-29,5.09 µM
same,activity at 10 µM,"HT29; HT-29, 48 h, read-out: Growth Percentage",76.3%
same,CC50,"HT29; HT-29, read-out: LC50",57.8 µM
same,IC (TGI),"HT29; HT-29, read-out: TGI",19.3 µM
same,GI50,KM12; KM12,3.27 µM
same,activity at 10 µM,"KM12; KM12, 48 h, read-out: Growth Percentage",1.17%
same,CC50,"KM12; KM12, read-out: LC50",35.9 µM
same,IC (TGI),"KM12; KM12, read-out: TGI",11 µM
same,GI50,SW-620; SW-620,2.82 µM
same,activity at 10 µM,"SW-620; SW-620, 48 h, read-out: Growth Percentage",5.7%
same,CC50,"SW-620; SW-620, read-out: LC50",41.6 µM
same,IC (TGI),"SW-620; SW-620, read-out: TGI",11.7 µM
same,GI50,SF-268; SF-268,13.5 µM
same,activity at 10 µM,"SF-268; SF-268, 48 h, read-out: Growth Percentage",46.1%
same,CC50,"SF-268; SF-268, read-out: LC50",64.2 µM
same,IC (TGI),"SF-268; SF-268, read-out: TGI",29.5 µM
same,activity at 10 µM,SNB-75,2.52%
same,GI50,U251; U-251,2.87 µM
same,activity at 10 µM,"U251; U-251, 48 h, read-out: Growth Percentage",15.5%
same,CC50,"U251; U-251, read-out: LC50",39.7 µM
same,IC (TGI),"U251; U-251, read-out: TGI",11.7 µM
same,GI50,LOX IMVI,2.8 µM
same,activity at 10 µM,LOX IMVI; [1],-5.17%
same,CC50,LOX IMVI; read-out: LC50,33.7 µM
same,IC (TGI),LOX IMVI; read-out: TGI,10.2 µM
same,GI50,MDA-MB-435; MDA-MB-435,4.12 µM
same,activity at 10 µM,"MDA-MB-435; MDA-MB-435, 48 h, read-out: Growth Percentage",8.26%
same,CC50,"MDA-MB-435; MDA-MB-435, read-out: LC50",45.1 µM
same,IC (TGI),"MDA-MB-435; MDA-MB-435, read-out: TGI",16.7 µM
same,GI50,SK-MEL-2; SK-MEL-2,5.87 µM
same,activity at 10 µM,"SK-MEL-2; SK-MEL-2, 48 h, read-out: Growth Percentage",62.3%
same,CC50,"SK-MEL-2; SK-MEL-2, read-out: LC50",47.9 µM
same,IC (TGI),"SK-MEL-2; SK-MEL-2, read-out: TGI",19.5 µM
same,GI50,SK-MEL-5; SK-MEL-5,5.82 µM
same,activity at 10 µM,"SK-MEL-5; SK-MEL-5, 48 h, read-out: Growth Percentage",48.8%
same,CC50,"SK-MEL-5; SK-MEL-5, read-out: LC50",43 µM
same,IC (TGI),"SK-MEL-5; SK-MEL-5, read-out: TGI",18.4 µM
same,GI50,UACC-257; UACC-257,11.3 µM
same,activity at 10 µM,"UACC-257; UACC-257, 48 h, read-out: Growth Percentage",69.1%
same,CC50,"UACC-257; UACC-257, read-out: LC50",51.9 µM
same,IC (TGI),"UACC-257; UACC-257, read-out: TGI",24.2 µM
same,GI50,UACC-62; UACC-62,5.17 µM
same,activity at 10 µM,"UACC-62; UACC-62, 48 h, read-out: Growth Percentage",46.8%
same,IC (TGI),"UACC-62; UACC-62, read-out: TGI",18.6 µM
same,GI50,IGROV1; IGROV-1,3.29 µM
same,activity at 10 µM,"IGROV1; IGROV-1, 48 h, read-out: Growth Percentage",37.1%
same,CC50,"IGROV1; IGROV-1, read-out: LC50",53.4 µM
same,IC (TGI),"IGROV1; IGROV-1, read-out: TGI",11.9 µM
same,GI50,OVCAR-4; OVCAR-4,10.7 µM
same,activity at 10 µM,"OVCAR-4; OVCAR-4, 48 h, read-out: Growth Percentage",49.5%
same,CC50,"OVCAR-4; OVCAR-4, read-out: LC50",48.5 µM
same,IC (TGI),"OVCAR-4; OVCAR-4, read-out: TGI",22.8 µM
same,GI50,OVCAR-5; OVCAR-5,15.4 µM
same,activity at 10 µM,"OVCAR-5; OVCAR-5, 48 h, read-out: Growth Percentage",116%
same,CC50,"OVCAR-5; OVCAR-5, read-out: LC50",57.3 µM
same,IC (TGI),"OVCAR-5; OVCAR-5, read-out: TGI",29.7 µM
same,GI50,786-0; 786-0,3.33 µM
same,activity at 10 µM,"786-0; 786-0, 48 h, read-out: Growth Percentage",25%
same,CC50,"786-0; 786-0, read-out: LC50",41.8 µM
same,IC (TGI),"786-0; 786-0, read-out: TGI",13.3 µM
same,GI50,CAKI-1; CAKI-1,10 µM
same,activity at 10 µM,"CAKI-1; CAKI-1, 48 h, read-out: Growth Percentage",32.8%
same,CC50,"CAKI-1; CAKI-1, read-out: LC50",47.2 µM
same,IC (TGI),"CAKI-1; CAKI-1, read-out: TGI",21.8 µM
same,GI50,SN12C,3.15 µM
same,activity at 10 µM,SN12C; [1],19.2%
same,CC50,SN12C; read-out: LC50,36.8 µM
same,IC (TGI),SN12C; read-out: TGI,13.1 µM
same,GI50,UO-31; UO-31,2.46 µM
same,activity at 10 µM,"UO-31; UO-31, 48 h, read-out: Growth Percentage",22.4%
same,IC (TGI),"UO-31; UO-31, read-out: TGI",13.5 µM
same,GI50,DU-145; DU-145,3.52 µM
same,activity at 10 µM,"DU-145; DU-145, 48 h, read-out: Growth Percentage",23.9%
same,CC50,"DU-145; DU-145, read-out: LC50",35.3 µM
same,IC (TGI),"DU-145; DU-145, read-out: TGI",12 µM
same,GI50,MCF7; MCF7,2.57 µM
same,activity at 10 µM,"MCF7; MCF7, 48 h, read-out: Growth Percentage",10.5%
same,CC50,"MCF7; MCF7, read-out: LC50",38.7 µM
same,IC (TGI),"MCF7; MCF7, read-out: TGI",10.6 µM
same,GI50,MDA-MB-231/ATCC; MDA-MB-231,10.9 µM
same,activity at 10 µM,"MDA-MB-231/ATCC; MDA-MB-231, 48 h, read-out: Growth Percentage",9.49%
same,CC50,"MDA-MB-231/ATCC; MDA-MB-231, read-out: LC50",50.9 µM
same,IC (TGI),"MDA-MB-231/ATCC; MDA-MB-231, read-out: TGI",23.5 µM
same,GI50,HS 578T,10.4 µM
same,activity at 10 µM,HS 578T; [1],74.6%
same,CC50,HS 578T; read-out: LC50,> 100 µM
same,IC (TGI),HS 578T; read-out: TGI,33 µM
same,GI50,T-47D,2.77 µM
same,activity at 10 µM,T-47D; [1],29%
same,CC50,T-47D; read-out: LC50,61.7 µM
same,IC (TGI),T-47D; read-out: TGI,11.8 µM
